Data taken from PubChem BioAssay (NCI).
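Following 48 hours of exposure in 96-well plates, responses at five concentrations were used to interpolate endpoints linearly. Definition used: TGI = concentration required for complete inhibition of growth.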 Where a SMILES comes first, the peptide text is derived from it.

Key:
Assay in all cases: DTP human tumour cell line panel, 48 h
[1] = tested on: SK-OV-3 ovarian
[2] = tested on: OVCAR-3 ovarian
[3] = tested on: OVCAR-8 ovarian
[4] = tested on: MCF7 breast
[5] = tested on: PC-3 prostate
[6] = tested on: SF-539 CNS
[7] = tested on: A498 renal
[8] = tested on: SNB-75 CNS
[9] = tested on: SF-295 CNS
[10] = tested on: UACC-62 melanoma
[11] = tested on: NCI-H226 lung
[12] = tested on: TK-10 renal
[13] = tested on: SN12C renal

| SMILES | TGI [1] | TGI [2] | TGI [3] | TGI [4] | TGI [5] | TGI [6] | TGI [7] | TGI [8] | TGI [9] | TGI [10] | TGI [11] | TGI [12] | TGI [13] |
| --- | --- | --- | --- | --- | --- | --- | --- | --- | --- | --- | --- | --- | --- |
| CCCCCCCCCCOCCOCCOCCOCCCCC(O)CCCCCCCC1=C[C@H](C)OC1=O (some centres not stated) | 41.4 µM | 33.8 µM | 33.6 µM | 20 µM | 20.9 µM | 24.5 µM | 26.5 µM | 24.7 µM | 21.5 µM | 28.7 µM | 23.4 µM | 21.4 µM | 29.9 µM |
| CC(C)(C)n1c(=O)n2n(c1=O)C1c3cccc4cccc(c34)C2C2c3cccc4cccc(c34)C1n1c(=O)n(C(C)(C)C)c(=O)n12 | > 100 µM | 60 µM | > 100 µM | > 100 µM | > 100 µM | > 100 µM | > 100 µM | > 100 µM | > 100 µM | > 100 µM | > 100 µM | > 100 µM | > 100 µM |
| O=[N+]([O-])C(/C=C(\Cl)[N+](=O)[O-])=C(N1CCCCC1)N1CCCCC1 | > 100 µM | 54.7 µM | > 100 µM | 18.9 µM | > 100 µM | 56.7 µM | 93.3 µM | – | > 100 µM | 60.8 µM | > 100 µM | > 100 µM | > 100 µM |
| CS(=O)(=O)O[C@H]1[C@H](O)c2ccccc2[C@@H]1N=[N+]=[N-] | > 100 µM | > 100 µM | > 100 µM | > 100 µM | > 100 µM | > 100 µM | > 100 µM | > 100 µM | > 100 µM | > 100 µM | > 100 µM | – | > 100 µM |
| Cn1cc(-c2nnc(-c3ccc(Cl)cc3)[nH]c2=O)c2ccccc21 | > 69.8 µM | 14.9 µM | > 100 µM | > 39.6 µM | > 78.7 µM | – | > 61 µM | 35.1 µM | > 28.3 µM | > 51.9 µM | 35.4 µM | 42.7 µM | > 64 µM |
| COC(=O)[C@]12CSC[C@H]1C[C@H](c1cccc3ccccc13)N2 | > 100 µM | > 100 µM | > 100 µM | > 100 µM | > 100 µM | > 100 µM | > 100 µM | > 100 µM | > 100 µM | > 100 µM | > 100 µM | – | > 100 µM |
| O=[N+]([O-])/C(Cl)=C/C(=C1/Nc2ccccc2O1)[N+](=O)[O-] | 75.7 µM | 57.5 µM | 40.5 µM | > 100 µM | 32.3 µM | 59.4 µM | 38.3 µM | 35.5 µM | 73.7 µM | 56.7 µM | 79.3 µM | > 100 µM | > 100 µM |
| COc1cc(C2OC[C@@H]3C(=O)OC[C@H]23)cc(O)c1OC (some centres not stated) | > 100 µM | > 100 µM | > 100 µM | > 100 µM | > 100 µM | > 100 µM | > 100 µM | > 100 µM | > 100 µM | > 100 µM | > 100 µM | > 100 µM | > 100 µM |
| Cc1cn(C2CCN(CC3COC(C)(C)O3)O2)c(=O)[nH]c1=O (configuration not stated) | > 100 µM | > 100 µM | > 100 µM | > 100 µM | > 100 µM | > 100 µM | > 100 µM | > 100 µM | > 100 µM | > 100 µM | > 100 µM | > 100 µM | > 100 µM |
| CC(C)Cn1cnc2c(Cl)nc3ccccc3c21 | > 100 µM | > 100 µM | > 100 µM | > 100 µM | > 100 µM | > 100 µM | > 100 µM | 88 µM | > 100 µM | > 100 µM | > 100 µM | > 100 µM | > 100 µM |
| CN(C)c1ccc(/C=C(\NC(=O)c2ccccc2)C(=O)Nc2cccc(C(=O)NCCCO)c2)cc1 | > 100 µM | > 100 µM | > 100 µM | > 100 µM | > 100 µM | > 100 µM | > 100 µM | > 100 µM | > 100 µM | > 100 µM | > 100 µM | > 100 µM | > 100 µM |
| CCC(C)C(NC(=O)C(CC(C)C)NC(=O)CNC(=O)C(NC(=O)C1CCCN1C(=O)C(CC(C)C)NC(=O)C(N)Cc1ccccc1)C(C)CC)C(=O)NC(CC(C)C)C(N)=O (configuration not stated) (H-FLPIGLIL-NH2; configuration not given here) | > 75 µM | > 75 µM | > 75 µM | > 75 µM | > 75 µM | > 75 µM | > 75 µM | – | > 75 µM | > 75 µM | > 75 µM | > 75 µM | > 75 µM |
| O=C1[C@@H](O)[C@@H]2CCCC[C@@]23CCCN13 | > 100 µM | – | > 100 µM | > 100 µM | > 100 µM | – | > 100 µM | > 100 µM | > 100 µM | > 100 µM | > 100 µM | > 100 µM | > 100 µM |
